One may read the melting point as the temperature, or range, at which the solid turns liquid.

A value given as a limit tells only on which side of the number the result lay.

For `O=C(NC(=O)c1c(Cl)cccc1Cl)Nc1ccc(Sc2ccc(Cl)cc2)nc1`, the melting point lay in the range of 160 to 162 °C.
On to `Nc1cc(Br)nc(C(=O)O)c1Cl`, for which the melting point was 182 to 183 °C.
Under `CC(C)n1nc(-c2c(-c3ccccc3)nn3c(N)cccc23)ccc1=O` stands 218 to 219 °C.
`O=C1CC(O)CC(CCc2c(Cl)cc(Cl)cc2OCc2ccc(C(F)(F)F)cc2)O1` (centres undefined) had a melting point of 104 to 105 °C.
Consider `CC(C)(C)C(O)C(=Cn1ccnc1)Oc1ccc(Cl)cc1` (centres undefined), for which the melting point was 141 to 143 °C.
Under `O=P(O)(O)C(O)(Cc1c(Cl)cccc1Cl)P(=O)(O)O` stands 226 to 228 °C; under `O=C1N(Nc2ccccc2)C(=S)OC12c1ccccc1-c1ccccc12`, 187 to 189 °C.
In turn, `CC1(c2cc(-c3cccc(CC4SC(N5CCOCC5)=NC4=O)c3)ccc2O)CCCCC1` (centres undefined) yielded a melting point of 98 to 99 °C.
`CC(CCC(=O)O)(c1ccc(OCc2ccc3ccc(Cl)cc3n2)cc1)c1ccc(OCc2ccc3ccc(Cl)cc3n2)cc1` showed a melting point of 88 to 90 °C.
For `CS(=O)(=O)c1ccc(Oc2cc(OCc3cccc(Cl)n3)c3[nH]c(C4=NCC(CC(N)=O)S4)cc3c2)cc1` (centres undefined), the melting point lay within 147 to 148 °C.
Consider `Cc1ccc(C(=O)NC(NC(=S)Nc2cccnc2)C(C)(C)C)cc1` (centres undefined), for which the melting point lay in the range of 168 to 169 °C.
Under `COC(=O)C(NS(=O)(=O)c1ccc(-c2ccc(NC(=O)c3oc4cccc(C5COC(C)(C)O5)c4c3C)cc2)cc1)C(C)C` (centres undefined) stands 192 to 194 °C; under `Cc1ccnc2c(Oc3ccccc3NS(=O)(=O)c3ccc(Cl)cc3)cccc12`, 123 to 125 °C.
As for `O=C(O)CCCC(=O)Nc1cccc(-c2nnc(-c3ccc(C(F)(F)F)cc3)nn2)c1`, the melting point was in the range of 246 to 248 °C.
On to `CC(C)(C)OC(=O)N1C(=O)[C@H]2C=C[C@@H]1C2`, for which the melting point was in the range of 70.5 to 71.5 °C.
For the compound `C=CCCONC(=O)c1nc(-c2ccc(Cl)c(OC)c2F)cc(N)c1Cl`, the melting point was 141 to 143 °C.
Under `CCOC(=O)c1cn(-c2nc(N)c(F)cc2F)c2c(Cl)c(NCC(O)COC3CNC3)c(F)cc2c1=O` (centres undefined) stands 148 to 152 °C; under `CC(=O)NCCC1CCc2ccc3nc(C4CC4)oc3c21` (centres undefined), 92 to 95 °C; under `O=C(O)c1ccc(N2C(=O)c3cccc([N+](=O)[O-])c3C2=O)cc1`, greater than 300 °C.
`O=C(O)C1Cc2cc3c(=O)c4c(Cl)cccc4oc3c(Cl)c2O1` (centres undefined) returned a melting point of 291 to 294 °C.
For `CCOC(=O)C1=C(C)NC(N)=C(C(=O)OC(C)C)C1c1ccccc1[N+](=O)[O-]` (centres undefined) the value was 139 °C; for `Cc1nc2cc3[nH]c(-c4ccncc4)nc3cc2s1`, greater than 300 °C; for `O=C(O)CCCCCCCCc1ccc(Cl)cc1`, 73 to 75 °C.
Under `COC(=O)C(=O)N1C(=O)[C@@H](NC(=O)OC(C)(C)C)[C@@H]1OC(C)=O` stands 144 to 146 °C; under `CC1=CC(O)C(OC(=O)c2ccccc2)C(C)(C)CC1OC(=O)c1ccccc1` (centres undefined), 142 to 144 °C.
For `Cc1cccc(C)c1C(=O)Nc1ccc(OCCN2CCOCC2)cc1`, the melting point is 177 to 190 °C.
For `CN=c1[nH]c2ccccc2c2nc(-c3ccc[nH]3)nn12` the value was 220 to 221 °C; for `CC(C)=CCCC(C)C1CCC2C3=CC=C4CC(O)CCC4(C)C3CCC21C` (centres undefined), 114 to 117 °C.
Take `CCCCCS(=O)(=O)NC(=O)CCc1ccc(OCCOC)cc1Oc1ccccc1`: the melting point fell in the range of 70.4 to 70.5 °C.
For `O=C(NCCCCCC1CCSS1)c1ccccc1` (centres undefined) the value was 58 to 59 °C; for `Cc1nc2cc(OCCCCl)ccc2s1`, 63 to 65 °C.
`C#CCSc1nc(Cl)cc(Cl)n1`: the melting point lay within 67 to 70 °C.
Under `O=C(O)[C@H](Cc1ccccc1)N[C@@H](CCc1ccccc1)C(=O)OCc1ccccc1` stands 141 to 144 °C; under `COc1ccc(C(=O)Nc2cccc3c2CCN(C)C3)cc1`, 170 to 172 °C; under `Clc1ccc(C2Cc3cnc4[nH]ncc4c3-c3ccccc32)cc1Cl` (centres undefined), 76 to 78 °C.
For the compound `COC(=O)C(NC(=O)c1c(F)cccc1F)c1ccc(Br)s1` (centres undefined), the melting point lay in the range of 123 to 124 °C.
As for `CN(C)C=NS(=O)(=O)c1cc(CCNC(=O)C(F)(F)F)ccc1OCC1CCCO1` (centres undefined), the melting point was in the range of 138 to 140 °C.
Under `Cc1ccc(S(=O)(=O)n2c3cccc(CCl)c3c3c(C)ccc(C)c32)cc1` stands 149 °C; under `Cc1cc(C)c(-n2ccc3c(OC(C)C)nn(C)c(=O)c32)c(C)c1`, 108 to 111 °C.
For `CCCCCCCCC(SCCCCCC)C(=O)Nc1c(SC)nc(C)nc1SC` (centres undefined) the value was 95 to 97.5 °C; for `CC(C)Oc1nc(SCc2cccc(C(F)(F)F)c2)nc2[nH]c(=O)cnc12`, 205 to 206 °C; for `CCc1cc(CC)nc(S)n1`, 82 to 84.5 °C.
Compound `COc1cc(C(C)=O)ccc1OCCCCBr` yielded a melting point of 52 to 54 °C.
With `C=CCN1CC(=O)N(c2cc(Cl)ccc2C)C1=S`, the melting point was 106 to 109 °C.
For `Cc1nc(-n2ccc(OCC3CCCO3)cc2=O)sc1C(=O)NCc1ccccc1` (centres undefined) the value was 181 to 183 °C; for `O=C(NCCO)c1cccc(-c2ccnc3cc(Cc4cccc(C(F)(F)F)c4)oc23)c1`, 158 to 159 °C.
Regarding `Cc1cc2c(s1)CCCc1cc(=O)n(-c3ccc(Cl)cc3)nc1-2`, the melting point lay in the range of 150 to 151 °C.
Regarding `NC(=O)Nc1ccc2c(c1)N1CCCN=C1S2`, the melting point amounted to 246 °C.
Under `CSC1NC(=O)N(C)C(=O)N1N=C(C)C` (centres undefined) stands 130 to 132 °C.
In the case of `CCCOCCOC(=O)C1=C(C)NC(C)=C(S(=O)(=O)NC(C)C)C1c1cccc([N+](=O)[O-])c1` (centres undefined), the melting point lay within 155 to 158 °C.
For `COc1cc(OC)c(C2C=CCN(C)C2)c(OC)c1` (centres undefined) the value was 118 to 122 °C.
For `COCCOC(=O)C1CCCCC1C(=O)Nc1cc(OC(C)C)c(Cl)cc1F` (centres undefined) the value was 58 to 60 °C; for `CCCCN(CC(=O)OCc1ccccc1)S(=O)(=O)c1ccc(N2CCC(NC[C@H](O)c3ccc(O)c(NS(C)(=O)=O)c3)CC2)cc1`, 59 to 64 °C.
In turn, `CC(C)(O)Cn1c(CCC2(C)OCCO2)nc2c(N)nc3ccccc3c21` gave a melting point of 231 to 233 °C.
In turn, `COc1ccc(CCNC2CCCc3c2ccc(=O)n3C)cc1` (centres undefined) had a melting point of 97 to 99 °C.
Compound `BrCc1nc2cc(OCc3ccccc3)ccc2s1` came in with a melting point of 87 to 89 °C.
For `Cc1c(Cl)cccc1N=Cc1ccccc1O` the value was 95 to 97 °C; for `Cc1c(-c2ccccc2)oc2c(CNC(=O)CCl)cccc2c1=O`, 152 to 155 °C; for `O=C(CO)c1ccc2ccccc2c1`, 114 to 115 °C.
`CCC1SC(c2ccncc2)=C(C)NC1=O` (centres undefined) displayed a melting point of 121 to 123 °C.
`CCOC(=O)c1ccc(NC(=O)C=C(C)c2ccc(Cl)c(Cl)c2)cc1` had a melting point of 149 to 150 °C.
`CC(C)(C)OC(=O)N(Cc1ccc(C(=O)NCC(=N)NO)cc1)c1ccc(C(C)(C)C)cc1` displayed a melting point of 154 to 156 °C.
In the case of `CCCCCCCCCCCCCCCCCCOC(=O)N(N)C(=O)c1cc(O)ccc1O`, the melting point amounted to 163 °C.
The compound `CCOC(=O)c1c(C)nc(NCCCN(C)C)c2nnn(CC)c12` showed a melting point of 30 to 34 °C.
For the compound `CCOC(=O)Cn1nnnc1S(=O)(=O)Cc1ccccc1`, the melting point is 105 to 107 °C.
Under `CCOC(=O)Nc1ccc2oc(Cc3ccccc3)cc2c1` stands 95 °C; under `CN1CCN(C2=Nc3ccccc3N(C)c3cscc32)CC1`, 83 to 85 °C; under `CCCCOc1ccc(C(=O)c2ccc(OCCBr)cc2)cc1`, 107 to 108 °C.
As for `CC(C)(C)OC(=O)COc1cc2cc(C(C)(C)O)sc2c(Cl)c1Cl`, the melting point is 137 to 138 °C.
The compound `Cc1ccc(S(=O)(=O)Cc2cccc(C(F)(F)F)c2)cc1` had a melting point of 139 to 140 °C.
Under `CN1Cc2c(C#CC(C)(C)O)ncn2-c2cccc(Cl)c2C1=O` stands 194 to 195 °C; under `Cc1[nH]cnc1CSCCNC1=C([N+](=O)[O-])CCCN1`, 206 °C; under `OC1(CNCc2ccccn2)CCN(CCCc2c[nH]c3ccc(-n4cnnc4)cc23)CC1`, greater than 55 °C.
For `COC(=O)c1ccc(OC)c(NC(=N)c2ccc(F)c(Cl)c2)c1` the value was 120 °C; for `Cc1cn2cccc(C=O)c2n1`, 123 to 125 °C.
Under `COc1ccc(N2CCN(CCn3c(=O)[nH]c4cscc4c3=O)CC2)cc1` stands 238 to 239 °C; under `COc1cc2c(cc1S(=O)(=O)Cl)CCC2`, 75 to 77 °C; under `CCCCOC(=O)Oc1cc(-n2c(OCC)nc(C(F)(F)F)cc2=O)c(F)cc1Cl`, 100 to 102 °C.
Compound `Cc1cc2c(cc1N1CC=CC1)OC(=O)C2C` (centres undefined) returned a melting point of 81 to 82 °C.
`OC1CSC(Oc2ccc(-c3ccc(N4CCCCC4)cc3)nc2)C(O)C1O` (centres undefined): the melting point came out at 221 °C.
Under `Cn1ncnc1COc1nn2c(-c3cnccn3)nnc2cc1-c1ccccc1` stands 264 °C; under `OCc1cc2cccc(Nc3cc(-c4ccc(C(F)(F)F)cc4)ncn3)c2[nH]1`, 221 to 223 °C.
For the compound `COC(=O)c1c(OC)c(OC)cc2[nH]c(=O)c(=O)[nH]c12`, the melting point was greater than 300 °C.
Under `Clc1cc(N2CCOCC2)ccc1Nc1ncc2c(Cl)cc(-c3ccccc3)n2n1` stands 242 to 244 °C; under `CCOC(=O)Nc1ccc(N2N=C(C)C(=CNc3ccccc3OC)C2=O)cc1`, 212 °C; under `COc1ccc(Cn2cnc(=O)c3[nH]c(C(C)C)nc32)cc1OCc1ccccc1`, 233 to 235 °C.
`COc1cc2c(cc1-c1ccc(F)cc1C)NC(=O)CC(c1cccc(-n3ccnc3)c1)=N2` came in with a melting point of 225 °C.
Under `COc1ccc2c(C(=O)O)cccc2c1SC(F)(F)F` stands 204 to 205 °C; under `O=C(CCCC(=O)C(F)(F)F)c1ccc(-c2cccc3ccccc23)cc1`, 79.7 to 82.5 °C.

These data come from a melting point compilation (Tetko et al.; mined from patent text by program, amines drawn as free bases though some values may be those of a salt).
